# Earlier results, collected in US20120258972A1, “Composition and Methods for Treating Hair Loss” (priority 2011, published 2012).
# What was measured:
# [1] = molecular target: T1, Type II isozyme of 5-alpha reductase (Homo sapiens, UniProt P31213)
# T1 sequence (P31213 1-254): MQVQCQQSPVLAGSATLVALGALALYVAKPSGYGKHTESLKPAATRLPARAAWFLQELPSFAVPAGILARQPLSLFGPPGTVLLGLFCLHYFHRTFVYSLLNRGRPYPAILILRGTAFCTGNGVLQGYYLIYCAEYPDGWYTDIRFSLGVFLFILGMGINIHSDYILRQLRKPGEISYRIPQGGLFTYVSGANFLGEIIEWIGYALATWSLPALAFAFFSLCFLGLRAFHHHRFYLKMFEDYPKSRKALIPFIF
# [2] = molecular target: T2, type I isozyme of 5-alpha reductase (Homo sapiens, UniProt P18405)
# T2 sequence (P18405 1-259): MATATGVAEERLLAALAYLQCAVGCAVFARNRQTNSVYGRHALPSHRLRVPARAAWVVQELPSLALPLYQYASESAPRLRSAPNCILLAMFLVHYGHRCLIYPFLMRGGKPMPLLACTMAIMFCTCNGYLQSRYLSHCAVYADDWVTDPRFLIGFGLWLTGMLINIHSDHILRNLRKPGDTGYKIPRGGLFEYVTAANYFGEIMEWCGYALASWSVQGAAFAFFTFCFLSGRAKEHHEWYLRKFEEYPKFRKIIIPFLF
# [3] = test system: serum dihydrotestosterone; conditions: oral
# male pattern hair loss = conditions: oral dutasteride 0.5 mg and 2.5 mg/day; 12 and 24 weeks
# [4] = test system: men with androgenic alopecia; conditions: ketoconazole shampoo 2% versus 2% minoxidil regimen
# C.3H/HeN mice = conditions: topical application
Structure (SMILES),Potency relative to finasteride at inhibiting the Type II isozyme of 5-alpha reductase [1],Potency relative to finasteride at inhibiting the type I isozyme of 5-alpha reductase [2],Decrease of serum dihydrotestosterone [3],Hair count compared with 5 mg/day finasteride (male pattern hair loss),"Hair density, size, and proportion of anagen follicles [4]",Effect on hair growth in mice (C.3H/HeN mice)
C[C@]12C=CC(=O)N[C@@H]1CC[C@@H]1[C@@H]2CC[C@]2(C)[C@@H](C(=O)Nc3cc(C(F)(F)F)ccc3C(F)(F)F)CC[C@@H]12 [dutasteride],3 times,more than 100 times,up to 90%,superior hair count,,
CC(C)(C)NC(=O)[C@H]1CC[C@H]2[C@@H]3CC[C@H]4NC(=O)C=C[C@]4(C)[C@H]3CC[C@]12C [finasteride],,,about 70%,,,
CC(=O)N1CCN(c2ccc(OCC3COC(Cn4ccnc4)(c4ccc(Cl)cc4Cl)O3)cc2)CC1 (stereo not shown) [ketoconazole],,,,,improved almost similarly,stimulatory effect on hair growth
